Target: T1, endogenous PIP4K2C C-terminally tagged with HiBiT peptide in MOLT-4 cells (Homo sapiens, UniProt Q8TBX8)
T1 construct: to C-terminally tag endogenous PIP4K2C with HiBiT peptide; host or cells: MOLT-4 (CRISPR-Cas9 knock-in clone)
T1 sequence (Q8TBX8 1-421): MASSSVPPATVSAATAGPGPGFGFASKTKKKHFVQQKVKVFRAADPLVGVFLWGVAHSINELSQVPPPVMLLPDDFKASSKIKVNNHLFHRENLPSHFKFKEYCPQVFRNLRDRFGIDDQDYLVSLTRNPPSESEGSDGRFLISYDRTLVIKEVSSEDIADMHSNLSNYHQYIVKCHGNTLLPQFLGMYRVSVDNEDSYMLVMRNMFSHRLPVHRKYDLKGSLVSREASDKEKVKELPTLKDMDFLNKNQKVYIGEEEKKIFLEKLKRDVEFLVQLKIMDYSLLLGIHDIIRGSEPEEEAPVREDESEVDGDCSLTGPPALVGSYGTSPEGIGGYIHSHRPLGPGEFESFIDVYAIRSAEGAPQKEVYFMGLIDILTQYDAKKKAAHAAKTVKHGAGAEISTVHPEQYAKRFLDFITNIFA
Test: HiBiT PIP4K2C degradation assay in MOLT-4 cells
Type: cell-based
Settings: 24 hours, 10-point dose response, top concentration 10 micromolar, read-out: HiBIT-degradation MOLT4 PIP4k2C 24 hours DC50
Method in brief: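 Cells bearing C-terminal HiBiT knock-in were exposed to a 10-point, 3-fold dilution series (top 10 micromolar, duplicate) for 24 h at 37C, 5% CO2. Remaining tagged protein read by lytic HiBiT luminescence; DC50 from Hill-equation fit.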

Row | Structure (SMILES) | DC50 [µM]
1 | O=C1CCC(Nc2ccc(N3CCC(CC(=O)N4CCC5(CC4)CCN(c4cncc(Nc6ncc(Cl)c(N7CCC[C@@H](C(F)(F)F)C7)n6)c4)C5=O)CC3)cc2)C(=O)N1 (stereo partly drawn) [Compound 177, 3-((4-(4-(2-(2-(5-((5-chloro-4-((R)-3-(trifluoromethyl)piperidin-1-yl)pyrimidin-2-yl)amino)pyridin-3-yl)-1-oxo-2,8-diazaspiro[4.5]decan-8-yl)-2-oxoethyl)piperidin-1-yl)phenyl)amino)piperidine-2,6-dione] | < 0.5
2 | O=C1CCC(N2C(=O)c3ccc(OCCCCC(=O)N4CCC5(CC4)CCN(c4cncc(Nc6ncc(Cl)c(-c7cccc(-c8ccccc8)c7)n6)c4)C5=O)cc3C2=O)C(=O)N1 (centres unmarked) [Compound 76, 5-((5-(2-(5-((4-([1,1′-biphenyl]-3-yl)-5-chloropyrimidin-2-yl)amino)pyridin-3-yl)-1-oxo-2,8-diazaspiro[4.5]decan-8-yl)-5-oxopentyl)oxy)-2-(2,6-dioxopiperidin-3-yl)isoindoline-1,3-dione] | < 0.5
